Laboratory results published in patent US11701434B2, “Tertiary amino lipidated cationic peptides for nucleic acid delivery” (Nutcracker Therapeutics, Inc., priority 2018, dated 2023).

Legend:
[1] = mRNA encapsulation by Qubit RNA HS dye fluorescence before and after Triton X-100 lysis; assay type: physicochemical; conditions: Fluc mRNA/peptoid formulation, 5:1 mass ratio peptoid:cargo
Protocol: (§1) In standard formulations, the tertiary amino lipidated and/or PEGylated cationic peptide compound is dissolved in anhydrous ethanol at a concentration of 0.5 mg/mL (for in vitro experiments) or 5 mg/mL (for in vivo experiments). The resulting solutions are stable at room temperature, but should be stored at −20° C. The nucleic acid cargo is dissolved in DNAse or RNAse-free water at a final concentration of 0.2 mg/mL (for in vitro experiments) or 1 mg/mL (for in vivo experiments). These solutions should be stored at −20° C. or at −78° C. for longer time periods. To prepare nanoparticle formulations, the tertiary amino lipidated and/or PEGylated cationic peptide compound is mixed by pipetting with nucleic acid at a mass ratio between approximately 1:1 (peptide compound:cargo) and 20:1. Prior to formulation, tertiary amino lipidated and/or PEGylated cationic peptide compounds and cargo (such as nucleic acid) are diluted in ethanol and acidic buffer (PBS adjusted to pH 5.5 with 0.1 M HCl) respectively to a volume ratio of 1:3 and to target a final cargo concentration of approximately 0.05 mg/mL to 0.2 mg/mL. The exemplary amino lipidated cationic peptoids 1-36 described in Example 2 were combined with firefly luciferase (Flue) mRNA to form nanoparticle compositions to be evaluated for therapeutic and/or prophylactic purposes in vitro or in vivo. The formulations were prepared according to the protocol of Example 3 and mixed by simple pipetting. The mRNA/peptoid formulation at a 5:1 mass ratio of peptoid:cargo were evaluated by dynamic light scattering (DLS) in order to determine the volume average particle size/diameter (nm) of the mRNA/peptoid complex and the size polydispersity index (PDI) within the formulation. The percentage of mRNA encapsulation for each formulation of the exemplary compounds were determined by fluorescence of the Qubit RNA HS (Invitrogen) dye before and after lysis of particles by Triton X-100.

[2] = Dynamic light scattering (DLS) of Fluc mRNA/peptoid formulations: particle size and polydispersity; assay type: physicochemical; conditions: 5:1 mass ratio peptoid:cargo; for Size (volume average particle size/diameter): Fluc mRNA/peptoid complex; for Size PDI (size polydispersity index): Fluc mRNA/peptoid formulation
Protocol: as §1

Row | % Encapsulation (percentage of mRNA encapsulation) [1] | Size (volume average particle size/diameter) [2] | Size PDI (size polydispersity index) [2] | Structure (SMILES)
1 | 100.3% | 150 nm | 0.128 | CCCCCCCCCCN(CC(N)=O)C(=O)CN(CCCCCCCCCC)C(=O)CN(CCc1ccccc1)C(=O)CN(CCc1ccccc1)C(=O)CN(CCN)C(=O)CN(CCc1ccccc1)C(=O)CN(CCc1ccccc1)C(=O)CN(CCN)C(=O)CN(CCc1ccccc1)C(=O)CN(CCc1ccccc1)C(=O)CNCCN [Compound 2]
2 | 95.9% | 255.3 nm | 0.247 | CCCCCCCCCCCCN(CC(N)=O)C(=O)CN(CCCCCCCCCCCC)C(=O)CN(CCc1ccccc1)C(=O)CN(CCc1ccccc1)C(=O)CN(CCN)C(=O)CN(CCc1ccccc1)C(=O)CN(CCc1ccccc1)C(=O)CN(CCN)C(=O)CN(CCc1ccccc1)C(=O)CN(CCc1ccccc1)C(=O)CNCCN [Compound 3]
3 | 88.3% | 364.7 nm | 0.308 | CCCCCCCCCCCCCCCCCCN(CC(N)=O)C(=O)CN(CCCCCCCCCCCCCCCCCC)C(=O)CN(CCc1ccccc1)C(=O)CN(CCc1ccccc1)C(=O)CN(CCN)C(=O)CN(CCc1ccccc1)C(=O)CN(CCc1ccccc1)C(=O)CN(CCN)C(=O)CN(CCc1ccccc1)C(=O)CN(CCc1ccccc1)C(=O)CNCCN [Compound 5]
4 | 88.4% | 296.7 nm | 0.177 | CCCCCCCCCCN(CC(N)=O)C(=O)CN(CCCCCCCCCC)C(=O)CN(CCCCCCCCCC)C(=O)CN(CCc1ccccc1)C(=O)CN(CCc1ccccc1)C(=O)CN(CCN)C(=O)CN(CCc1ccccc1)C(=O)CN(CCc1ccccc1)C(=O)CN(CCN)C(=O)CN(CCc1ccccc1)C(=O)CN(CCc1ccccc1)C(=O)CNCCN [Compound 7]
5 | 90.3% | 472.8 nm | 0.37 | CCCCCCCCCCN(CC(=O)N(CCN)CC(=O)N(CCc1ccccc1)CC(=O)N(CCc1ccccc1)CC(=O)N(CCCCCCCCCC)CC(=O)N(CCN)CC(=O)N(CCc1ccccc1)CC(=O)N(CCc1ccccc1)CC(N)=O)C(=O)CN(CCc1ccccc1)C(=O)CN(CCc1ccccc1)C(=O)CNCCN [Compound 17]
6 | 88.5% | 593 nm | 0.762 | CCCCCCCCCCNCC(=O)N(CCN)CC(=O)N(CCc1ccccc1)CC(=O)N(CCc1ccccc1)CC(=O)N(CCN)CC(=O)N(CCc1ccccc1)CC(=O)N(CCc1ccccc1)CC(=O)N(CCN)CC(=O)N(CCc1ccccc1)CC(=O)N(CCc1ccccc1)CC(=O)N(CCCCCCCCCC)CC(N)=O [Compound 18]
7 | 72.2% | 326.6 nm | 0.37 | CCCCCCCCCCN(CC(N)=O)C(=O)CN(CCCCCCCCCC)C(=O)CN(CCCCCCCCCC)C(=O)CN(CCCCCCCCCC)C(=O)CN(CCCCCCCCCC)C(=O)CN(CCc1ccccc1)C(=O)CN(CCc1ccccc1)C(=O)CN(CCN)C(=O)CN(CCc1ccccc1)C(=O)CN(CCc1ccccc1)C(=O)CNCCN [Compound 20]
8 | 65.4% | 748.2 nm | 0.538 | CCCCCCCCCCN(CC(N)=O)C(=O)CN(CCCCCCCCCC)C(=O)CN(CCCCCCCCCC)C(=O)CN(CCCCCCCCCC)C(=O)CN(CCCCCCCCCC)C(=O)CN(CCCCCCCCCC)C(=O)CN(CCc1ccccc1)C(=O)CN(CCc1ccccc1)C(=O)CN(CCN)C(=O)CN(CCc1ccccc1)C(=O)CN(CCc1ccccc1)C(=O)CN(CCN)C(=O)CN(CCc1ccccc1)C(=O)CN(CCc1ccccc1)C(=O)CNCCN [Compound 22]
9 | 3.9% | – | – | CCCCCCCCCCN(CC(N)=O)C(=O)CN(CCCCCCCCCC)C(=O)CN(CCCCCCCCCC)C(=O)CN(CCCCCCCCCC)C(=O)CN(CCCCCCCCCC)C(=O)CN(CCCCCCCCCC)C(=O)CN(CCCCCCCCCC)C(=O)CN(CCc1ccccc1)C(=O)CN(CCc1ccccc1)C(=O)CN(CCN)C(=O)CN(CCc1ccccc1)C(=O)CN(CCc1ccccc1)C(=O)CN(CCN)C(=O)CN(CCc1ccccc1)C(=O)CN(CCc1ccccc1)C(=O)CNCCN [Compound 23]
10 | 8.4% | 773.3 nm | 0.021 | CCCCCCCCCCN(CC(N)=O)C(=O)CN(CCCCCCCCCC)C(=O)CN(CCCCCCCCCC)C(=O)CN(CCCCCCCCCC)C(=O)CN(CCc1ccccc1)C(=O)CN(CCc1ccccc1)C(=O)CN(CCNC)C(=O)CN(CCc1ccccc1)C(=O)CN(CCc1ccccc1)C(=O)CN(CCNC)C(=O)CN(CCc1ccccc1)C(=O)CN(CCc1ccccc1)C(=O)CNCCNC [Compound 25]

Continued, molecule first:

Row | Structure (SMILES) | % Encapsulation (percentage of mRNA encapsulation) [1] | Size (volume average particle size/diameter) [2] | Size PDI (size polydispersity index) [2]
11 | CCCCCCCCN(CC(N)=O)C(=O)CN(CCCCCCCC)C(=O)CN(CCc1ccccc1)C(=O)CN(CCc1ccccc1)C(=O)CN(CCN)C(=O)CN(CCc1ccccc1)C(=O)CN(CCc1ccccc1)C(=O)CN(CCN)C(=O)CN(CCc1ccccc1)C(=O)CN(CCc1ccccc1)C(=O)CNCCN [Compound 1] | 90.1% | 356.9 nm | 0.047
12 | CCCCCCCCCCCCN(CC(N)=O)C(=O)CN(CCCCCCCCCCCC)C(=O)CN(CCc1ccc(OC)cc1)C(=O)CN(CCc1ccc(OC)cc1)C(=O)CN(CCN)C(=O)CN(CCc1ccc(OC)cc1)C(=O)CN(CCc1ccc(OC)cc1)C(=O)CN(CCN)C(=O)CN(CCc1ccc(OC)cc1)C(=O)CN(CCc1ccc(OC)cc1)C(=O)CNCCN [Compound 4] | 99.0% | 326.7 nm | 0.191
13 | CCCCCCCCCCN(CC(N)=O)C(=O)CN(CCc1ccccc1)C(=O)CN(CCc1ccccc1)C(=O)CN(CCN)C(=O)CN(CCc1ccccc1)C(=O)CN(CCc1ccccc1)C(=O)CN(CCN)C(=O)CN(CCc1ccccc1)C(=O)CN(CCc1ccccc1)C(=O)CNCCN [Compound 6] | 92.4% | 448.6 nm | 0.348
14 | CCCCCCCCCCN(CC(N)=O)C(=O)CN(CCCCCCCCCC)C(=O)CN(CCc1ccccc1)C(=O)CN(CCc1ccccc1)C(=O)CNCCN [Compound 9] | 73.9% | 367.9 nm | 0.122
15 | CCCCCCCCCCN(CC(N)=O)C(=O)CN(CCCCCCCCCC)C(=O)CN(CCc1ccccc1)C(=O)CN(CCc1ccccc1)C(=O)CN(CCN)C(=O)CN(CCc1ccccc1)C(=O)CN(CCc1ccccc1)C(=O)CNCCN [Compound 10] | 92.6% | 157 nm | 0.009
16 | CCCCCCCCCCN(CC(N)=O)C(=O)CN(CCCCCCCCCC)C(=O)CN(CCc1ccccc1)C(=O)CN(CCc1ccccc1)C(=O)CN(CCN)C(=O)CN(CCc1ccccc1)C(=O)CN(CCc1ccccc1)C(=O)CN(CCN)C(=O)CN(CCc1ccccc1)C(=O)CN(CCc1ccccc1)C(=O)CN(CCN)C(=O)CN(CCc1ccccc1)C(=O)CN(CCc1ccccc1)C(=O)CNCCN [Compound 11] | 87.8% | 354.9 nm | 0.038
17 | CCCCCCCCCCN(CC(N)=O)C(=O)CN(CCCCCCCCCC)C(=O)CN(CCc1ccccc1)C(=O)CN(CCN)C(=O)CN(CCc1ccccc1)C(=O)CN(CCN)C(=O)CN(CCc1ccccc1)C(=O)CNCCN [Compound 13] | 90.4% | 822.6 nm | 0.447
18 | CCCCCCCCCCN(CC(N)=O)C(=O)CN(CCCCCCCCCC)C(=O)CN(CCN)C(=O)CN(CCN)C(=O)CNCCN [Compound 14] | 77.3% | 554 nm | 0.233
19 | CCCCCCCCCCN(CC(N)=O)C(=O)CN(CCCCCCCCCC)C(=O)CN(CCN)C(=O)CN(CCN)C(=O)CN(CCN)C(=O)CN(CCN)C(=O)CNCCN [Compound 15] | 76.9% | 1064 nm | 1
20 | CCCCCCCCCCN(CC(N)=O)C(=O)CN(CCCCCCCCCC)C(=O)CN(CCN)C(=O)CN(CCN)C(=O)CN(CCN)C(=O)CN(CCN)C(=O)CN(CCN)C(=O)CN(CCN)C(=O)CN(CCN)C(=O)CN(CCN)C(=O)CNCCN [Compound 16] | 85.4% | 1486 nm | 1
21 | CCCCCCCCCCN(CC(N)=O)C(=O)CN(CCCCCCCCCC)C(=O)CN(CCCCCCCCCC)C(=O)CN(CCCCCCCCCC)C(=O)CN(CCc1ccccc1)C(=O)CN(CCc1ccccc1)C(=O)CN(CCNC)C(=O)CN(CCc1ccccc1)C(=O)CN(CCc1ccccc1)C(=O)CN(CCNC)C(=O)CN(CCc1ccccc1)C(=O)CN(CCc1ccccc1)C(=O)CN(CCNC)C(=O)CN(CCc1ccccc1)C(=O)CN(CCc1ccccc1)C(=O)CNCCNC [Compound 26] | 35.7% | – | –
